For assay [1], the system named is peritoneal macrophages. The assay can be described thus: TNF-α production by stimulated peritoneal macrophages (ELISA). In kind it is cell-based, mouse.
Assay [2] has as its system peritoneal macrophages. Description: IL-6 (ELISA) and NO2^− (Greiss method) production by peritoneal macrophages. In kind it is cell-based, mouse. The following applies: for production of IL-6: 24 hours; for production of NO2^−: in the presence of IFN-γ (30 unit/ml).
Description: Each of TLR2 knockout (TLR2−/−), TLR4 knockout (TLR4−/−) and wild-type (wild-type) mice were intraperitoneally injected with 2 ml of 4% thioglycollate medium (DIFCO). Three days later, peritoneal exudate cells were isolated from the peritoneal cavity of each mouse. These cells were cultured in RPMI1640 medium (GIBCO) supplemented with 10% fetal bovine serum (GIBCO) for 2 hours at 37° C. and washed with ice-cold Hank's buffered salt solution (HBSS; GIBCO) to remove nonadherent cells. Adherent cells were used as peritoneal macrophages for following experiments.
Synthetic lipid A, which was soluble in endotoxin-free water and containing 0.025% of triethylamine, was used as said synthetic lipid A. After the culture, production amounts of IL-6 (FIG. 17A), TNF-α (FIG. 17B) and NO2^− (FIG. 17C) in culture supernatants were measured. Production amount of IL-6 was measured by enzyme-linked immunosorbent assay (ELISA; ENDOGEN), and that of TNF-α was measured by ELSIA, according to manufacturer (Genzyme)'s instructions, and that of NO2^31 was measured by the Greiss method using NO2/NO3 Assay Kit (Dojindo Laboratories).
A further assay has as its system NF-κB. The assay can be described thus: NF-κB DNA binding activity (electrophoretic / gel mobility shift assay). In kind it is cell-based, mouse. The protocol:
Splenic T cells cultured in the presence of IL-12 and anti-CD3 antibody for 4 days were starved for 3 hours and then stimulated with IL-18. Nuclei extracted from the stimulated cells were analyzed by a gel mobility shift assay using a specific probe containing NF-κB binding site.
NF-κB activation in response to LPS or PGN was also investigated. Macrophages of various kinds of mouse were stimulated with said LPS or PGN, then nuclear extracts from the macrophages were purified and incubated with a probe specific to DNA binding site of NF-κB, and visualized by electrophoretic mobility shift assay as described previously (Immunity 9, 143–150, 1998). The results are shown in FIGS. 21C and D. Arrows in FIGS. 21C and D indicate the position of a complex comprised of NF-κB and the specific probe, and arrowheads indicate the position of specific probe only.
(§1) In order to examine whether a lipoprotein/lipopeptide activates intracellular signaling molecules with the results of example 16, peritoneal macrophages of the 4 kinds of mouse (1×10^6) were stimulated with 0.3 ng/ml of R-MALP-2 for 10 minutes, and in vitro kinase assay (Auto in FIG. 25A), Western blot analysis (WB in FIG. 25A), electrophoretic mobility shift assay (FIG. 25B) were conducted with anti-IRAK antibody as in example 12. In addition, in vitro kinase assay (Auto in FIG. 25C) and Western blot analysis (WB in FIG. 25C) with anti-JNK1 antibody were also conducted.

Another assay concerns JNK. The assay can be described thus: JNK activation (in vitro kinase assay). In kind it is cell-based, mouse. The protocol:
In addition to induction of NF-κB activation, IL-1 is also known to activate c-Jun N-terminal kinase (JNK). To test whether IL-18 induces JNK activation, an in vitro kinase assay was carried out using GST-c-Jun-fusion protein as a […]. […] IL-18-induced NF-κB and JNK activation was impaired in MyD88-deficient mice.
as §1

The next assay concerns YAC-1 targeting cells. Description: NK lytic activity against 51Cr-labelled YAC-1 target cells. In kind it is cell-based, mouse. The following applies: 24 hours. As for the experimental part: It has been well known that IL-18 enhances lytic activity of NK cells. Splenic […] from MyD88 knockout mice of the present invention and wild-type littermates were cultured in the presence or absence of 20 ng/ml of IL-18 (Hayashibara Biochemical Laboratories, Inc.) for 24 hours with ^51Cr-labelled mouse lymphoma cells (hereinafter “YAC-1”) targeting cells. 4 hours later, released ^51Cr in supernatants were counted by a gamma counter.

A further assay has as its system splenic T cells. The assay can be described thus: IFN-γ production by splenic cells / splenic T cells (ELISA). In kind it is cell-based, mouse. The following applies: 20 ng/ml, 24 hours. The protocol:
Further, splenic B cells of MyD88 knockout mice of the present invention and their wild-type littermates were stimulated by 20 ng/ml of IL-18 and cultured for 24 hours in vitro, then production of IFN-γ in culture supernatants was measured by ELISA.
Splenic T cells of MyD88 knockout mice of the present invention and their wild-type littermates, which were purified to 95% or over, were cultured on anti-CD3 antibody (20 μg/ml)(PharMingen)-coated plates in the presence of 2 ng/ml IL-12. 4 days after the onset of culture, cells were harvested and washed with Hanks' balanced salt solution. The washed cells (2×10^5) were stimulated and cultured again on anti-CD3 antibody (20 μg/ml)-coated 96-well plates for 24 hours with 20 ng/ml of IL-18 or 2 ng/ml of IL-12. Concentration of IFNγ in culture supernatants was determined by ELISA and compared.
MyD88 knockout mice of the present invention and their wild-type littermates were intraperitoneally injected with 500 μg of heat-killed Propionibacterium acnes (P. acnes). […] Concentration of IFN-γ in culture supernatants was determined by ELISA. […] 14 days after injection, T cells were purified from spleen, then cultured and stimulated for 24 hours, as described above, subsequently concentration of IFN-γ was measured.

The subject of a further assay is AP-1. Description: AP-1-dependent reporter activity after IL-18 treatment. In kind it is cell-based. The following applies: stimulation with IL-18. As for the experimental part:
Next, it was examined whether the dominant negative MyD88 mutant blocked IL-18-induced NF-κB activation as well. COS-7 cells were transiently transfected with MyD88 (amino acid 152–296) expression vector together with NF-κB-dependent luciferase reporter gene, and luciferase activity after IL-18 treatment was measured. Coexpression of MyD88 blocked IL-18-induced activation almost completely (see FIG. 7).
Because IL-18 activates AP-1-dependent gene information, whether MyD88 (amino acid 152–296) also acted as a dominant negative mutant of IL-18-induced AP-1 activation was investigated. Stimulation with IL-18-induced an approximately 3- to 4-fold increase in AP-1 activity, and this activation was blocked by coexpression of MyD88 (amino acid 152–296) (see FIG. 7).

The next assay concerns thymocytes. The assay can be described thus: Thymocyte (T cell) proliferation with IL-1 costimulation ([3H]thymidine). The following applies: 100 U/ml with PHA, ConA or IL-2, 72 hours. In kind it is cell-based, mouse. The source says: Proliferation of T cells were examined by measuring [^3H] amount of [^3H] thymidine taken into the cells.
A further assay relates to mice. Description: IL-1-induced acute phase protein mRNA in liver and serum TNF-α/IL-6 after intravenous injection. In kind it is in vivo, mouse. The following applies: 1 μg intravenously, 2 hours. The protocol:
MyD88 knockout mice of the present invention were intravenously injected with 1 μg of […] (Genzyme), and 2 hours later liver and sera were taken. Total RNA was extracted from the liver using Trizol reagent (GIBCO). This RNA (10 μg) was electrophoresed and transferred to a nylon membrane, then Northern blot analysis was conducted with ^32P-labelled cDNA for acute phase proteins such as serum amyloid A (SAA-I), serum amyloid P(SAP), and haptoglobin (HP).
Because IL-1 induces production of […], increase of TNF-α and IL-6 concentrations in serum taken from MyD88 knockout mice of the present invention and wild-type littermates by the above-stated method were measured by ELISA.

The subject of another assay is splenic B cells. Description: MHC class II (I-A^b) expression on splenic B cells (flow cytometry). The following applies: 48 hours. In kind it is cell-based, mouse. As for the experimental part: The expression of major histocompatibility complex (MHC) class II (I-A^b molecule) on the surface of splenic B cells in response to Re-595LPS was examined by flow cytometry. Splenic B cells (1×10^6) from each of the wild-type, MyD88- and TLR4-deficient mice were cultured for 48 hours in the presence of various concentrations (0, 0.01, 0.1, 1, 10 or 100 μg/ml) of LPS. After the culture, the cells were collected and then stained by combining I-A^b molecule on the surface of the cells and FITC-labelled antibody which is constructed by combining phycoerythrin (PE; PharMingen)-conjugated anti-B220 antibody or biotinylated anti-mouse I-A^b antibody (PharMingen) and fluorescein […] (FITC; PharMingen)-conjugated streptavidin. The stained cells were analyzed on fluorescence-activated cell sorter Calibur (FACS Calibur) using CELLQuest software (Becton Dickinson).
Next, Splenic B cells (1×10^6) from each of the wild-type, MyD88- and TLR4-deficient mice were cultured for 48 hours in the presence or absence of 100 U/ml of IL-4, and then stimulated. Subsequently, the cells were stained by combining I-A^b molecule on the surface of the splenic B cells and PE-conjugated anti-B220 antibody or FITC-conjugated anti-mouse I-A^b antibody. The cell proliferation was measured on fluorescence-activated cell sorter Calibur using CELLQuest software (see FIG. 9B).
In addition, the expression of major histocompatibility complex (MHC) class II (I-A^b) on the surface of B cells in response to Re-595 LPS was examined by flow cytometry. Splenic B cells (1×10^5) of each of wild-type, TLR2 knockout (2−/−) and TLR4 knockout (4−/−) mice were isolated and cultured for 48 hours in 96-well plates with various concentrations (0, 10^1, 10^2, 10^3, 10^4 or 10^5 ng/ml) of LPS or 100 U/ml of IL-4. […] The stained cells were analyzed on fluorescence-activated cell sorter Calibur (FACS Calibur) using CELLQuest software (Becton Dickinson) (FIG. 18B).

For assay [3], the system named is peritoneal macrophages. Description: I-A^b expression in peritoneal macrophages after intraperitoneal IFN-γ. In kind it is in vivo, mouse. The following applies: 5000 U intraperitoneally, three days after injection. The source says: Each of wild-type, MyD88- and TLR4-deficient mice were intraperitoneally injected with 5000 U of IFN-γ (Genzyme) or PBS. Three days after injection, peritoneal macrophages were collected and stained by combining I-A^b molecule on the surface of the macrophage membranes and FITC-conjugated anti-mouse I-A^b antibody, then analyzed by fluorescence-activated cell sorter Calibur using CELLQuest software (see FIG. 9C).

[4] abbreviates: peritoneal macrophages of TLR2 knockout mice.
The mark [5] stands for this setting: peritoneal macrophages of wild-type mice.
[6] abbreviates: nuclear extracts of wild-type cells.

Entries after “also recorded” stand apart in the source; their conditions may differ. Where two headings read alike, the source gives them in different places.

For the molecule lipid A, the “production of TNF-α” value is “produced IL-6 and TNF-α” in the assay with peritoneal macrophages [1]; “produced neither IL-6 nor TNF-α” in the assay on peritoneal macrophages [1] (peritoneal macrophages of TLR4-deficient mice, 24 hours). The “production of IL-6” value in the assay on peritoneal macrophages [2] (setting [4]) was “produced IL-6 and TNF-α”; with peritoneal macrophages [2] (peritoneal macrophages of TLR4 knockout mice), “produced neither IL-6 nor TNF-α”; with peritoneal macrophages [2] (setting [5]) it was “produced IL-6 and TNF-α”. The “production of NO2^−” value in the assay on peritoneal macrophages [2] (setting [4]) and with peritoneal macrophages [2] (setting [5]) was “production of NO2^− was confirmed” throughout.
As for TNF-α, the “NF-κB DNA binding activity / NF-κB activation” value in the assay on NF-κB (nuclear extracts of MyD88-deficient cells) and in the assay with NF-κB (setting [6]) was “almost the same levels of NF-κB DNA binding activity” each time. Also, in the assay with JNK (MyD88-deficient cells), the JNK activation result was “normal activation of JNK was observed”.
Take “IL-18: IL-18 (Hayashibara Biochemical Laboratories, Inc.), cytokine”: the “NF-κB DNA binding activity / NF-κB activation” value with NF-κB (setting [6]) is on record as “detected in the nuclear extracts from wild-type cells”. Further, the JNK activation entry in the assay on JNK (MyD88-deficient cells) is reported as “IL-18-induced JNK activation was not observed”; with JNK (Th1-developing cells of wild-type mice), “induced JNK activation”. Besides, the “lytic activity to YAC-1 targeting cells” value is on record as “not enhanced” in the assay on YAC-1 targeting cells (splenic cells of MyD88 knockout mice) and “dramatically enhanced” in the assay on YAC-1 targeting cells (splenic cells of wild-type mice). Besides, the “production of IFN-γ” value with splenic T cells (splenic cells / T cells of MyD88 knockout mice) is recorded as “production of IFN-γ was not observed; also recorded: cannot enhance IL-18-responsive production of IFNγ; also recorded: could not be enhanced”; in the assay on splenic T cells (splenic cells / T cells of wild-type mice) it was “production of IFN-γ was induced; also recorded: high level of IFN-γ production in response to IL-18 was observed”. For the same molecule, in the assay on AP-1, the “increase in AP-1 activity” value is recorded as 3- to 4 fold.
Consider IL-1β: IL-1β (Genzyme), cytokine, for which the proliferation of thymocytes result with thymocytes (MyD88 knockout mice) was “almost no enhanced proliferation”; in the assay with thymocytes (wild-type littermates) it was “displayed enhanced proliferation”. Further, the “IL-6 concentration in serum” value in the assay on mice (MyD88 knockout mice) was “neither TNF-α nor IL-6 concentration increased”; in the assay on mice (wild-type mice) it was “TNF-α and IL-6 concentrations increased”. In addition, the “TNF-α concentration in serum” value is “neither TNF-α nor IL-6 concentration increased” in the assay on mice (MyD88 knockout mice); “TNF-α and IL-6 concentrations increased” in the assay with mice (wild-type mice). The “increase of mRNA expression of acute phase proteins (SAA-I, SAP, HP) in liver” value in the assay on mice (MyD88 knockout mice) was “not observed in MyD88 knockout mice”; in the assay with mice (wild-type littermates), “increase of induction was observed in wild-type mice”.

B1: IL-4: IL-4 (Genzyme), cytokine (protein, UniProt P05112 25-153, looked up)
Interleukin-4: HKCDITLQEIIKTLNSLTEQKTLCTELTVTDIFAASKNTTEKETFCRAATVLRQFYSHHEKDTRCLGATAQQFHRHKQLIRFLKRLDRNLWGLAGLNSCPVKEANQSTLENFLERLKTIMREKYSKCSS
As for B1, the entries for the “expression of I-A^b molecule” value with splenic B cells (splenic B cells of MyD88-deficient mice), in the assay on splenic B cells (splenic B cells of TLR2 knockout mice) and in the assay with splenic B cells (splenic B cells of TLR4-deficient mice) were “showed same reaction as those of wild-type mice”, “normal expression of I-A^b molecule” and “showed same reaction as those of wild-type mice; also recorded: normal expression of I-A^b molecule”, respectively.

B2: IFN-γ: IFN-γ (Genzyme), cytokine (protein, UniProt P01579 24-161, looked up)
Interferon gamma: QDPYVKEAENLKKYFNAGHSDVADNGTLFLGILKNWKEESDRKIMQSQIVSFYFKLFKNFKDDQSIQKSVETIKEDMNVKFFNSNKKKRDDFEKLTNYSVTDLNVQRKAIHELIQVMAELSPAAKTGKRKRSQMLFRG
Regarding B2, the “expression of I-A^b molecule in peritoneal macrophages” value in the assay on peritoneal macrophages [3] was “comparative among wild-type, MyD88- and TLR4-deficient mice”.

These data come from patent US7078585B1, “Bacterial cell component-unresponsive model mouse” (Japan Science and Technology Agency, priority 1999, dated 2006).
